Legend:
HIV infected persons [1] = assay: Clinical trial of niacin (nicotinamide) in HIV infected persons: plasma amino acids by HPLC, tolerability; type: in vivo, human
Experimental: Four HIV infected persons participated in a trial of niacin in the form of nicotinamide. The participants were at various stages of their HIV infection as judged by their CD4 counts which ranged from 0 to 620 [see table 1]. […] Two of the participants had known co-infections infections typical of HIV infected persons. Each participant took 3 grams of nicotinamide per day for 2 months. […] Each participant's plasma tryptophan was measured prior to treatment and at the end of treatment [see table 3]. […] All amino acid concentrations were measured by High Performance Liquid Chromotography [HPLC].

HIV infected persons [2] = conditions: cited from earlier work

O=C(O)c1cccnc1 [Niacin]
tryptophan status (plasma tryptophan), in words (HIV infected persons [1]; four patients across the range of baseline CD4 count, antiviral medication and co-infections): improve tryptophan status in all four patients

Cc1cn([C@H]2C[C@H](N=[N+]=[N-])[C@@H](CO)O2)c(=O)[nH]c1=O [Zidovudine, zidovudine]
effect on plasma tryptophan in HIV infected persons (HIV infected persons [2]; HIV infected persons): replete plasma tryptophan
side effects (HIV infected persons [2]; in vivo): headache, nausea, and bone marrow suppression

NC(=O)c1cccnc1 [nicotinamide]
adverse side effects of treatment (HIV infected persons [1]; 3 grams of nicotinamide per day for 2 months, four HIV infected persons): not associated with any adverse side effects
average increase of plasma tryptophan of all participants (HIV infected persons [1]; 3 grams of nicotinamide per day orally for 2 months, four HIV infected persons, before vs end of treatment, p=0.0112 (paired t-test)): 43.9%

— US7012086B1, “Treatment of retrovirus induced derangements with niacin compounds” (The Foundation For Innovative Therapies, Inc., priority 2000, dated 2006)
